One molecule from US20230365577A1, “Photodynamic Therapy and Diagnosis” (RMW CHO Group Limited, priority 2020, published 2023) can be followed below.

Series [1] can be described thus: Singlet oxygen (1O2) production rate. In kind it is physicochemical. The source says:
The production of singlet oxygen (^1O2), cellular phototoxicity and light-independent cytotoxicity (“dark toxicity”) of a number of phyllochlorin analogues were compared against chlorin e4 disodium and Talaporfin sodium (mono-L-aspartyl chlorin e6), the active ingredient of Laserphyrin™.

For series [2], the system named is SKOV3 ovarian cancer cells. The series can be described thus: Phototoxicity in SKOV3 cells (652 nm laser, AlamarBlue viability). In kind it is cell-based, Human. As to conditions: Homo sapiens, SK-OV-3, light or radiation study. In outline:
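SKOV3 cells were loaded for 24 h with photosensitizer (0–10 μM in DMSO) in medium containing 10% Kollidon-12. After a media change they were irradiated at 652 nm, 50 mW/cm^2 for 5 min (15 J/cm^2), cultured a further 24 h, and viability was read by AlamarBlue in quadruplicate. Phototoxicity IC90 and dark-toxicity IC10 came from variable-slope normalized dose–response fits.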
(Alamar Blue is a resazurin reagent that responds to reducing activity.)

Series [3] has as its system SKOV3 ovarian cancer cells. Put plainly: Inherent cytotoxicity (dark toxicity) in SKOV3 cells (AlamarBlue viability). In kind it is cell-based, Human. As to conditions: human, 24 h.
Series [4] concerns A549. The series can be described thus: Phototoxicity, pan-cancer panel. The class given is cell-based. As to conditions: Homo sapiens, light or radiation study; A549, lung adenocarcinoma. As to the method: (§1) To test for phototoxicity, cells incubated with phyllochlorin analogues (0-10 μM in DMSO) had culture media replaced after 24 hours (as above) and were then exposed to a 652 nm laser (Invion) with laser density at 50 mW/cm^2 for 5 mins (total 15 J/cm^2). Following activation, cells were cultured for a further 24 hours. Media was then replaced with fresh media containing AlamarBlue, and % viable cells remaining assessed as above. Controls included cells treated with phyllochlorin analogues but not activated by laser light; cells without phyllochlorin analogue treatment but with laser light; and untreated controls. All measurements were made in quadruplicate.
(§2) The activity of phyllochlorin analogues against multiple cancer cell types was assessed as above, using compounds 3 and 6 as examples.

Series [5] deals with CaOV3. The series can be described thus: Phototoxicity, pan-cancer panel. As to conditions: Homo sapiens, Caov-3, light or radiation study; CaOV3, ovarian adenocarcinoma. In kind it is cell-based. As to the method:
as §1, §2

Series [6] deals with DLD-1. The series can be described thus: Phototoxicity, pan-cancer panel. The class given is cell-based. As to conditions: Homo sapiens, light or radiation study; DLD-1, colorectal adenocarcinoma. The protocol: as §1, §2
Series [7] relates to HEK293. Put plainly: Phototoxicity, pan-cancer panel. The class given is cell-based. The conditions noted are these: Homo sapiens, light or radiation study; HEK293, embryonic kidney. As to the method:
as §1, §2

Series [8] deals with HH. Put plainly: Phototoxicity, pan-cancer panel. The class given is cell-based. As to conditions: Homo sapiens, light or radiation study, T cell lymphoma. The protocol: as §1, §2
Series [9] has as its system LP9. Put plainly: Phototoxicity, pan-cancer panel. In kind it is cell-based. The conditions noted are these: light or radiation study; LP9, immortalised mesothelial cells. The protocol: as §1, §2
Series [10] deals with MDA-MB-468. The series can be described thus: Phototoxicity, pan-cancer panel. The class given is cell-based. The conditions noted are these: Homo sapiens, light or radiation study; MDA-MB-468, breast adenocarcinoma (triple negative). The protocol:
as §1, §2

The subject of series [11] is OVCAR3. The series can be described thus: Phototoxicity, pan-cancer panel. The class given is cell-based. As to conditions: Homo sapiens, OVCAR-3, light or radiation study; OVCAR3, ovarian adenocarcinoma. As to the method: as §1, §2
The test system of series [12] is A549. The series can be described thus: Cytotoxicity, pan-cancer panel. As to conditions: A549, lung adenocarcinoma. The class given is cell-based. As to the method: (§3) To test for inherent cytotoxicity (i.e. “dark toxicity”) of the phyllochlorin analogue the culture media was replaced after 24 hours with fresh media containing 10% (v/v) AlamarBlue Cell Viability Reagent (ThermoFisher) and cells incubated at 37° C. for 6 hours. Untreated cells were used as a control. Fluorescence (Ex 555 nm/Em 596 nm) was measured using a Cytation 3 Multimode Plate Reader (Biotek), and cytotoxicity assessed according to the % viable cells remaining. All measurements were made in quadruplicate.
as §2

The subject of series [13] is CaOV3. Put plainly: Cytotoxicity, pan-cancer panel. The class given is cell-based. The conditions noted are these: CaOV3, ovarian adenocarcinoma. As to the method: as §3, §2
The subject of series [14] is DLD-1. The series can be described thus: Cytotoxicity, pan-cancer panel. The class given is cell-based. The conditions noted are these: DLD-1, colorectal adenocarcinoma. As to the method: as §3, §2
For series [15], the system named is HEK293. The series can be described thus: Cytotoxicity, pan-cancer panel. The conditions noted are these: HEK293, embryonic kidney. In kind it is cell-based. The protocol:
as §3, §2

Series [16] concerns HH. The series can be described thus: Cytotoxicity, pan-cancer panel. As to conditions: T cell lymphoma. In kind it is cell-based. As to the method: as §3, §2
For series [17], the system named is LP9. Put plainly: Cytotoxicity, pan-cancer panel. The class given is cell-based. As to conditions: LP9, immortalised mesothelial cells. As to the method:
as §3, §2

The test system of series [18] is MDA-MB-468. The series can be described thus: Cytotoxicity, pan-cancer panel. As to conditions: MDA-MB-468, breast adenocarcinoma (triple negative). The class given is cell-based. As to the method:
as §3, §2

Series [19] relates to OVCAR3. The series can be described thus: Cytotoxicity, pan-cancer panel. In kind it is cell-based. As to conditions: OVCAR3, ovarian adenocarcinoma. The protocol:
as §3, §2

Read-outs that look alike come from different tables or passages of the source. Some results are limits rather than exact numbers.

For the molecule `C=Cc1c(C)c2cc3nc(c(C)c4cc(C)c(cc5nc(cc1[nH]2)C(C)=C5CC)[nH]4)[C@@H](CCC(=O)NCCCS[C@@H]1O[C@H](CO)[C@@H](O)[C@H](O)[C@H]1O)[C@@H]3C` [Compound 3, 3-((7S,8S)-18-ethyl-2,5,8,12,17-pentamethyl-13-vinyl-7H,8H-porphyrin-7-yl)-N-(3-(((2S,3R,4S,5S,6R)-3,4,5-trihydroxy-6-(hydroxymethyl)tetrahydro-2H-pyran-2-yl)thio)propyl)propanamide], the “Singlet Oxygen Production (slope) 1O2” value in [1] was found to be 2054.0. Also, the 90% effect concentration (IC90) is 110 nM in series [2] (SKOV3, ovarian clear cell (Table 2), read-out: Phototoxicity IC90); 80 nM in [2] (SKOV3, 24 h uptake, 652 nm laser 50 mW/cm2 5 mins (15 J/cm2), viability 24 h later, read-out: Cellular Toxicity: Phototoxicity IC90); below 100 nM in series [2] (SKOV3, read-out: Phototoxicity apparent IC90); 200 nM in series [4]; 50 nM in [5]; 360 nM in series [6]. Besides, the IC90 turned out to be 220 nM in series [7]; 110 nM in [8]; 40 nM in series [9]; 70 nM in series [10]; 170 nM in [11]. In series [3], the “Cellular Toxicity: Dark toxicity IC10” value was 20660 nM. Further, the “Cytotoxicity IC10” value is 20660 nM in [3]; 4220 nM in series [12]; 5430 nM in series [13]; 42280 nM in series [14]; 8110 nM in series [15]; 14800 nM in [16]. The “Cytotoxicity IC10” value in [17] turned out to be 18010 nM; in [18], 6000 nM; in [19], 29970 nM.

The term IC90 denotes the point of the concentration-response curve where the effect stands at 90%.
